Like-named read-outs stand apart in the source and are kept apart here.
Experiments:
rats = experiment: Portal vein flow during 20-minute jejunal NaHS infusion in rats fed MgO diet; format: in vivo, rat
From the text: FIG. 7. Portal venous flow recordings over 20-minute infusion of NaHS in two groups: Standard-diet-fed rats and Magnesium Oxide (MgO)-fed rats. Vehicle group shown as control; standard diet fed rats followed by water infusion. All measurements shown as percent change from baseline to accommodate for compensate for variation in baseline data; data shown as percent change±SEM. Baseline flow measurements recorded and average (shown as time 0) for each group. […] No difference is noted between MgO diet group and vehicle.
Rats were divided into three groups: Magnsium Oxide (MgO) diet, 500 mg MgO per 100 g chow, with NaHS infusion into small intestine (jejunim); standard diet with NaHS infusion into jejunum; and standard diet with control (vehicle) infusion into jejunim. Diets were administered for three days total. At the end of diet treatment, rats underwent surgery to measure porta vein flow before and after infusion of small intestine (jejunum) sodium hydrosulfide (NaHS), a hydrogen sulfide donor. Portal vein blood flow was recorded at baseline for 10 minutes and throughout 20-minute infusion periods. Data reported as percent change from baseline; infusion started at minute 1 of data shown. Blood flow data are reported as mean percent baseline change+/−SEM and were compared by 2-way RM-ANOVA.

[1] = tested on: Desulfovibrio vulgaris (DSV); conditions: 14 hours
From the text: FIG. 8. Effect of molybdate on growth of Desulfovibrio vulgaris (DSV) on a culture plate.

[2] = tested on: Desulfovibrio vulgaris (DSV); experiment: Production of hydrogen sulfide gas by DSV in the culture system; format: cell-based; conditions: molybdate at 10 μM, 50 μM, and 1 mM; dose dependent
From the text: FIG. 9. Effect of molybdate on the production of hydrogen sulfide gas measured in parts per billion (ppb) in the culture system.

Structure (SMILES) | Portal venous flow (percent change from baseline), MgO diet group versus vehicle (rats; 500 mg MgO per 100 g chow for three days, 20-minute NaHS infusion, vehicle = standard diet, water infusion) | Portal vein blood flow, MgO diet group versus other two groups (rats; at minutes 20 of infusion) | Growth of DSV ([1]; molybdate at 10 μM, 50 μM, and 1 mM, dose-dependent) | Growth of DSV ([1]; molybdate at 1 mM) | Generation of H2S gas by DSV (ppb) [2]
[O]=[Mg] [MgO, Magnesium Oxide] | No difference | Statistical significant difference |  |  | 
[O]=[Mo](=[O])([O-])[O-] [molybdate] |  |  | suppressed the growth | completely suppressing the growth | suppressed the generation of H2S gas

From patent US20210060058A1, “COMPOSITIONS AND METHODS FOR TREATING HYDROGEN SULFIDE-MEDIATED HYPERDYNAMIC CIRCULATION” (priority 2019, published 2021)
